According to article PMC3847553, “Kinetic properties of “dual” orexin receptor antagonists at OX1R and OX2R orexin receptors” (Frontiers in Neuroscience, 2013):
Positions count from the first letter of the chain named. Where two headings read alike, the source gives them in different places.

Key:
mouse OX1R = target: T1, mouse OX1R (Mus musculus, UniProt P58307); assay: FLIPR orexin A-stimulated calcium accumulation, mouse OX1R; type: cell-based; conditions: HEK cells
T1 construct: expressed in transfected cells; host or cells: HEK; cells from GNF, San Diego
T1 sequence (P58307 1-416): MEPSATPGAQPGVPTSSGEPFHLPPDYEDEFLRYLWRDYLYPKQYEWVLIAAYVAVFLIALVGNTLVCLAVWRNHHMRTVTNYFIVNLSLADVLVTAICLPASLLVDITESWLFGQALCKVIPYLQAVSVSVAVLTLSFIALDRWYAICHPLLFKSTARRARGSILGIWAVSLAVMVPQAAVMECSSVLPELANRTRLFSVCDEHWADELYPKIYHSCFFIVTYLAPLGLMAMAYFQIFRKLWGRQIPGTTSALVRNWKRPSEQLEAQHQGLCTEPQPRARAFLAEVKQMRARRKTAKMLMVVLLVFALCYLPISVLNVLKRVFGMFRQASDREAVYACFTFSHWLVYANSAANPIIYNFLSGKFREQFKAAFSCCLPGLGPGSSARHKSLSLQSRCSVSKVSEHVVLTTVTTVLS
Experimental: (§1) Chinese Hamster Ovary (CHO) cells stably transfected with the cDNA encoding the human OX1R (CHO-hOX1) or OX2R (CHO-hOX2) were used (kindly provided by T. Cremer and Dr. S. Geisse, NIBR Basel, Switzerland). For measurements of calcium accumulation using FLIPR® (Fluorescent Imaging Plate Reader) assay, CHO or Human Embryonic Kidney (HEK) cells stably expressing mouse, rat or human OX1R or OX2R (kindly provided by Dr. A. Chen, GNF, San Diego, CA, USA) were used. All cells were cultured in 1:1 Dulbecco's Modified Eagle's Medium (DMEM)/Ham's F12 Nutrients Mixture (F12) supplemented with 10% (v/v) fetal bovine serum (FBS), […] (100 μg/ml), Fungizone (250 μg/ml), and Geneticin (G418, […]). Cells were maintained in a humidified incubator at 37°C in 5% CO2. For crude cell membrane preparations, cells were washed and harvested in 10 mM HEPES (pH 7.5), and centrifuged at 4°C for 5 min at 2500 g. The cell pellet was either stored at −80°C or used directly.
(§2) Cells expressing either human, rat or mouse OX1R or OX2R were seeded at 8,000 cells/well in black 384 well clear bottom plates and incubated overnight at 37°C. The following day, medium was discarded and cells loaded with 50 μ l of 1 mM Fluo-4 AM (Invitrogen F14202) in dimethyl sulfoxide in working buffer (Hanks' balanced salt solution, 10 mM HEPES) and incubated for 60 min at 37°C. The loading buffer was removed and cells were washed with 100 μ l working buffer containing […], 0.1% BSA, and 2.5 mM Probenecid (pH 7.4) to remove the excess Fluo-4 AM. […] The assay plate was then transferred to the Molecular Devices-FLIPR384. The baseline calcium signal was recorded for 10 s, then the antagonist of interest was injected (10 μl at 3 times the final concentration) and the calcium signal recorded every second for 1 min, then every 2 s 40 times. Plates were then incubated at room temperature for 30 min, 1, 2, or 4 h.

rat OX1R = target: T2, rat OX1R (Rattus norvegicus, UniProt P56718); assay: FLIPR orexin A-stimulated calcium accumulation, rat OX1R; type: cell-based; conditions: HEK cells
T2 construct: expressed in transfected cells; host or cells: HEK; cells from GNF, San Diego
T2 sequence (P56718 1-416): T1 sequence (P58307 1-416) with Q116H, H205R, I221F, A232G, R245P, G383S
Experimental: as §1, §2

[1] = antagonist incubation 30 min, read-out: pKi (converted)
[2] = antagonist incubation 1 h, read-out: pKi (converted)
[3] = antagonist incubation 2 h, read-out: pKi (converted)
[4] = antagonist incubation 4 h, read-out: pKi (converted)
[5] = pKi, antagonist incubation 30 min

Compound	Ki (mouse OX1R; [1]) [nM]	Ki (mouse OX1R; [2]) [nM]	Ki (mouse OX1R; [3]) [nM]	Ki (mouse OX1R; [4]) [nM]	Ki (rat OX1R; antagonist incubation 30 min) [nM]	Ki (rat OX1R; antagonist incubation 1 h) [nM]	Ki (rat OX1R; antagonist incubation 2 h) [nM]	Ki (rat OX1R; antagonist incubation 4 h) [nM]	Ki (mouse OX1R; [5]) [nM]	Ki (mouse OX1R; pKi, antagonist incubation 1 h) [nM]	Ki (mouse OX1R; pKi, antagonist incubation 2 h) [nM]	Ki (mouse OX1R; pKi, antagonist incubation 4 h) [nM]
Cc1ccc(-c2ncccn2)c(C(=O)N2C[C@H](COc3ccc(F)cn3)CC[C@H]2C)c1 [Filorexant]	5.25	4.07	6.61	5.89	0.759	0.617	0.501	1.2				
CNC(=O)[C@@H](c1ccccc1)N1CCc2cc(OC)c(OC)cc2[C@@H]1CCc1ccc(C(F)(F)F)cc1 [Almorexant]					12.6	12.6	11.2	17.4	18.6	23.4	33.9	38.9
COc1ccnc(N2CCC3(CCCN(Cc4c[nH]c5ccccc45)C3=O)CC2)n1 [IPSU, 2-((1H-Indol-3-yl)methyl)-9-(4-methoxypyrimidin-2-yl)-2,9-diazaspiro[5.5]undecan-1-one]	331	490	288	324	224	240	275	562				
Cc1ccc(-n2nccn2)c(C(=O)N2CCN(c3nc4cc(Cl)ccc4o3)CC[C@H]2C)c1 [Suvorexant]									1.26	1.05	0.933	1.02
Cc1nc(C(=O)N2CCCC[C@H]2CNC(=O)c2cccc3occc23)c(-c2ccc(F)cc2)s1 [SB-649868]	0.158	0.427	0.0407	0.0468	0.257	0.126	0.0676	0.0724				
